The results in this text go back to DBAASP.

Converted amounts (≈) assume the structure as drawn.

Common to all, as to test: ≥ marks a high value that may be exact or a test limit, other limits are often not marked, values filed in µg/mL are converted to µM
Test [1] deals with Enterobacter cloacae beta-12.
The subject of test [2] is Enterococcus faecalis ATCC 29212.
Test [3] has as its system Enterococcus faecium.
In test [4] the test system is Escherichia coli BL21.
In test [5] the test system is Pseudomonas aeruginosa PA14.
Test [6] has as its system Pseudomonas aeruginosa.
Test [7] concerns Staphylococcus aureus ATCC 25923.
For test [8], the system named is Staphylococcus aureus K35.
For test [9], the system named is Staphylococcus aureus K52.
In test [10] the test system is Staphylococcus epidermidis ATCC 12228.
Test [11] relates to Bacillus anthracis UM23-CL2.
Test [12] has as its system Burkholderia cepacia J2540.
The test system of test [13] is Acinetobacter baumannii ATCC BAA-1605.
For test [14], the system named is Escherichia coli ATCC 43827.
The subject of test [15] is Pseudomonas aeruginosa ATCC 27853.
For test [16], the system named is Pseudomonas aeruginosa ATCC 9027.
In test [17] the test system is Staphylococcus aureus ATCC 29313.
Test [18] relates to Staphylococcus aureus ATCC 33591.
For test [19], the system named is Xanthomonas axonopodis pv. glycines ISBF 327.
Test [20] concerns Escherichia coli K12 MG1655.
The subject of test [21] is Staphylococcus aureus 68 HER 1049.
Test [22] has as its system Escherichia coli ATCC 25922.
Test [23] relates to Pseudomonas aeruginosa ATCC 10419.
The subject of test [24] is Pseudomonas aeruginosa ATCC 21625.
The subject of test [25] is Pseudomonas aeruginosa ATCC 21630.
Test [26] concerns Pseudomonas aeruginosa LCCE.
Test [27] concerns Pseudomonas aeruginosa LCCI.
Test [28] relates to Pseudomonas aeruginosa LCGE.
Test [29] relates to Pseudomonas aeruginosa LC.
In test [30] the test system is Salmonella enterica subsp. enterica serovar Typhimurium C77-31.
Test [31] has as its system Staphylococcus aureus ATCC 29213.
Test [32] deals with Bacillus subtilis PS832.
Test [33] concerns Escherichia coli MG1655.

As usually defined, the MIC is the least concentration at which growth counts as inhibited. The low end stands for greater potency, the high end for weaker potency. In the case of `CC[C@H](C)[C@H](NC(=O)CNC(=O)[C@H](CO)NC(=O)[C@H](CC(C)C)NC(=O)[C@@H](NC(=O)[C@H](CCCCN)NC(=O)CNC(=O)[C@@H](NC(=O)[C@H](CC(C)C)NC(=O)[C@@H]1CCCN1C(=O)[C@H](CC(C)C)NC(=O)[C@@H](N)Cc1ccccc1)[C@@H](C)CC)C(C)C)C(=O)N[C@@H](CC(C)C)C(N)=O` [FLPLIGKVLSGIL], the MIC in [1] was no less than 128 µM; in test [2], 20.9 µM (≈ 28.6 µg/mL); in test [3], 17.5 µM (≈ 24 µg/mL); in [4] it was no less than 64 µM; in test [5], no less than 128 µM; in [6], greater than 64 µM. Also, the MIC in [7] was 5.2 µM (≈ 7.12 µg/mL); in test [8], 4.4 µM (≈ 6.02 µg/mL); in test [9] it was 4.4 µM (≈ 6.02 µg/mL); in test [10], no less than 128 µM.
As to `CC[C@H](C)[C@H](NC(=O)CN)C(=O)NCC(=O)N[C@@H](CCCCN)C(=O)N[C@@H](Cc1ccccc1)C(=O)N[C@@H](CC(C)C)C(=O)N[C@@H](Cc1cnc[nH]1)C(=O)N[C@@H](CO)C(=O)N[C@@H](C)C(=O)N[C@@H](CCCCN)C(=O)N[C@@H](CCCCN)C(=O)N[C@@H](Cc1ccccc1)C(=O)N[C@@H](Cc1ccccc1)C(=O)N[C@@H](CCCCN)C(=O)N[C@@H](CCCN=C(N)N)C(=O)N[C@H](C(=O)N[C@H](C(=O)N[C@@H](CCC(N)=O)C(=O)N[C@@H](CCCN=C(N)N)C(=O)N[C@H](C(=O)N[C@@H](CCCCN)C(=O)N[C@@H](CC(=O)O)C(=O)N[C@@H](Cc1ccccc1)C(=O)N[C@@H](CC(C)C)C(=O)N[C@@H](CCCN=C(N)N)C(=O)O)[C@@H](C)CC)C(C)C)[C@@H](C)CC` [GIGKFLHSAKKFFKRIVQRIKDFLR], the minimal inhibitory concentration (MIC) in test [11] and in test [12] was no less than 82.4 µM each time.
For `CC[C@H](C)[C@H](NC(=O)[C@H](CCCCN)NC(=O)[C@H](CC(N)=O)NC(=O)[C@@H](NC(=O)[C@@H](NC(=O)[C@H](CCCCN)NC(=O)[C@@H](NC(=O)[C@H](C)NC(=O)[C@@H](NC(=O)[C@H](Cc1cnc[nH]1)NC(=O)CNC(=O)[C@H](C)NC(=O)[C@H](CC(C)C)NC(=O)[C@H](CC(=O)O)NC(=O)[C@H](CCCCN)NC(=O)[C@H](C)NC(=O)[C@H](C)NC(=O)CNC(=O)[C@H](CCCCN)NC(=O)[C@H](CC(C)C)NC(=O)[C@@H](NC(=O)[C@H](CC(=O)O)NC(=O)[C@H](CC(C)C)NC(=O)[C@@H](NC(=O)CN)C(C)C)[C@@H](C)CC)C(C)C)[C@@H](C)O)C(C)C)[C@@H](C)CC)C(N)=O` [GVLDILKGAAKDLAGHVATKVINKI], the MIC in [13] is no less than 50.3 µM; in test [14] it was no less than 201 µM; in test [15], 100 µM (≈ 254 µg/mL); in [16], greater than 201 µM; in test [17], no less than 50 µM; in test [18], no less than 201 µM. Also, the MIC in test [19] is 25 µM (≈ 63.6 µg/mL).
On to `CC[C@H](C)[C@H](NC(=O)[C@H](CC(C)C)NC(=O)[C@H](CCCN=C(N)N)NC(=O)[C@H](Cc1c[nH]c2ccccc12)NC(=O)CN)C(=O)N[C@@H](CCCCN)C(=O)N[C@@H](CCCCN)C(=O)N[C@H](C(=O)N[C@@H](CC(C)C)C(=O)N[C@@H](CCCN=C(N)N)C(=O)N[C@H](C(=O)N[C@@H](Cc1ccccc1)C(=O)N[C@@H](CCCCN)C(=O)NCC(=O)N[C@@H](CC(C)C)C(=O)O)C(C)C)[C@@H](C)CC` [GWRLIKKILRVFKGL], for which the MIC in test [20] and in test [21] was 2.19 µM (≈ 4 µg/mL) each time.
Take `CC[C@H](C)[C@H](NC(=O)[C@H](CCCCN)NC(=O)[C@H](CCCCN)NC(=O)[C@H](CC(C)C)NC(=O)[C@H](CCCN=C(N)N)NC(=O)[C@H](CCCCN)NC(=O)[C@H](CCCN=C(N)N)NC(=O)[C@H](Cc1c[nH]c2ccccc12)NC(=O)[C@H](CCCCN)NC(=O)[C@H](CCCCN)NC(=O)[C@H](CCCN=C(N)N)NC(=O)[C@H](CC(C)C)NC(=O)[C@H](CCCN=C(N)N)NC(=O)[C@H](CCCN=C(N)N)NC(=O)[C@H](Cc1ccccc1)NC(=O)[C@@H](N)CCCN=C(N)N)C(N)=O` [RFRRLRKKWRKRLKKI]: the minimum inhibitory concentration (MIC) worked out at 64 µM (≈ 145 µg/mL) in test [22]; 4 µM (≈ 9.07 µg/mL) in test [23]; 4 µM (≈ 9.07 µg/mL) in test [24]; 4 µM (≈ 9.07 µg/mL) in [25]; 4 µM (≈ 9.07 µg/mL) in test [26]; 2 µM (≈ 4.54 µg/mL) in test [27]. In addition, the MIC is 4 µM (≈ 9.07 µg/mL) in [28]; 1 µM (≈ 2.27 µg/mL) in test [29]; no less than 128 µM in [30]; 128 µM (≈ 290 µg/mL) in test [31]; 64 µM (≈ 145 µg/mL) in [10].
In the case of `CC[C@H](C)[C@H](NC(=O)[C@H](CCCN=C(N)N)NC(=O)[C@H](CCCCN)NC(=O)[C@H](CC(C)C)NC(=O)[C@H](CC(C)C)NC(=O)CNC(=O)[C@H](Cc1cnc[nH]1)NC(=O)[C@@H](NC(=O)[C@@H](N)CCCN=C(N)N)[C@@H](C)O)C(=O)N[C@@H](CCCCN)C(=O)N[C@H](C(=O)N[C@@H](CC(C)C)C(=O)N[C@@H](CC(C)C)C(N)=O)[C@@H](C)O` [RTHGLLKRIKTLL], the MIC in test [32] was determined as 4 µM (≈ 6.19 µg/mL); in test [33] it was 8 µM (≈ 12.4 µg/mL).
